Results taken from patent publication US20220031845A1, “DILUENTS FOR COMPOSITIONS OF CANNABINOIDS AND USES THEREOF” (KANABO RESEARCH LTD., priority 2019, published 2022).

Legend:
[1] = Crystallization of CBD blends with different diluents after addition of crystal seed; assay type: physicochemical; set-up: key to crystallization of CBD: +: crystallization; −: no crystallization; conditions: for crystallization of CBD: 1% flavor, crystal seed, 22° C., one week; for concentration of CBD stabilized in the composition: at the diluent concentration that prevents crystallization
Description: 5 g of the following different blends were prepared. The blends contained a CBD distillate containing 92% of CBD, a diluent at different concentrations and 1% natural flavor (Girl School cookies from Floraplex—USA). The diluent was phytol, natural bisabolol or a combination of phytol and natural bisabolol. 2 mg of crystal seed were added to the vial to initiate crystallization. The vials were stored at 22° C. The vials were checked after a week to see if there is crystallization.

[2] = Stability of oversaturated CBD blend to crystallization; assay type: physicochemical; set-up: key: +: crystallization; −: no crystallization; conditions: one week at 10 or 22° C.
Description: Vials were prepared with 5 ml of oversaturated blend of CBD with different diluent. The blend was composed of CBD distilled oil (containing 90% CBD and less than 1% bisabolol) or CBD isolate (more than 99% CBD), and natural bisabolol and phytol. The stability of the solution to crystallization in the vial after a week of storage at either 10 or 22° C. is presented in Table 7.

[3] = 28% diluent in blend, CBD distillate 92% CBD
[4] = 32% diluent in blend, CBD distillate 92% CBD
[5] = 36% diluent in blend, CBD distillate 92% CBD

## C/C(=C\CO)CCC[C@H](C)CCC[C@H](C)CCCC(C)C [Phytol, phytol]
[1]; [3]
  crystallization of CBD: +
[1]; [4]
  crystallization of CBD: +
[1]; [5]
  crystallization of CBD: +
[1]; 40% diluent in blend, CBD distillate 92% CBD
  crystallization of CBD: +
[1]; 44% diluent in blend, CBD distillate 92% CBD
  crystallization of CBD: −
[1]
  concentration of CBD stabilized in the composition: about 50%
[1]; upon addition of crystallization seeds, CBD distillate 92% CBD
  concentration of diluent required to prevent crystallization: about 44%
[2]; CBD 90% distilled oil, 15% diluent in blend
  Crystallization: +

## CC(C)=CCC[C@](C)(O)C1CC=C(C)CC1 (stereo partly drawn) [Bisabolol, α-(−)-bisabolol]
[1]; [3]
  crystallization of CBD: +
[1]; [4]
  crystallization of CBD: −
[1]; [5]
  crystallization of CBD: −
[1]
  concentration of CBD stabilized in the composition: up to 65%
[2]; CBD 90% distilled oil, 5% diluent in blend
  Crystallization: −
[2]; CBD 90% distilled oil, 10% diluent in blend
  Crystallization: −
[2]; CBD 90% distilled oil, 20% diluent in blend
  Crystallization: −
[2]; CBD isolate, 10% diluent in blend
  Crystallization: +
[2]; CBD isolate, 20% diluent in blend
  Crystallization: −
